The target in assay [1] is T1, Serine/threonine-protein kinase LATS2 (Homo sapiens) (UniProt Q9NRM7).
T1 sequence (whole entry): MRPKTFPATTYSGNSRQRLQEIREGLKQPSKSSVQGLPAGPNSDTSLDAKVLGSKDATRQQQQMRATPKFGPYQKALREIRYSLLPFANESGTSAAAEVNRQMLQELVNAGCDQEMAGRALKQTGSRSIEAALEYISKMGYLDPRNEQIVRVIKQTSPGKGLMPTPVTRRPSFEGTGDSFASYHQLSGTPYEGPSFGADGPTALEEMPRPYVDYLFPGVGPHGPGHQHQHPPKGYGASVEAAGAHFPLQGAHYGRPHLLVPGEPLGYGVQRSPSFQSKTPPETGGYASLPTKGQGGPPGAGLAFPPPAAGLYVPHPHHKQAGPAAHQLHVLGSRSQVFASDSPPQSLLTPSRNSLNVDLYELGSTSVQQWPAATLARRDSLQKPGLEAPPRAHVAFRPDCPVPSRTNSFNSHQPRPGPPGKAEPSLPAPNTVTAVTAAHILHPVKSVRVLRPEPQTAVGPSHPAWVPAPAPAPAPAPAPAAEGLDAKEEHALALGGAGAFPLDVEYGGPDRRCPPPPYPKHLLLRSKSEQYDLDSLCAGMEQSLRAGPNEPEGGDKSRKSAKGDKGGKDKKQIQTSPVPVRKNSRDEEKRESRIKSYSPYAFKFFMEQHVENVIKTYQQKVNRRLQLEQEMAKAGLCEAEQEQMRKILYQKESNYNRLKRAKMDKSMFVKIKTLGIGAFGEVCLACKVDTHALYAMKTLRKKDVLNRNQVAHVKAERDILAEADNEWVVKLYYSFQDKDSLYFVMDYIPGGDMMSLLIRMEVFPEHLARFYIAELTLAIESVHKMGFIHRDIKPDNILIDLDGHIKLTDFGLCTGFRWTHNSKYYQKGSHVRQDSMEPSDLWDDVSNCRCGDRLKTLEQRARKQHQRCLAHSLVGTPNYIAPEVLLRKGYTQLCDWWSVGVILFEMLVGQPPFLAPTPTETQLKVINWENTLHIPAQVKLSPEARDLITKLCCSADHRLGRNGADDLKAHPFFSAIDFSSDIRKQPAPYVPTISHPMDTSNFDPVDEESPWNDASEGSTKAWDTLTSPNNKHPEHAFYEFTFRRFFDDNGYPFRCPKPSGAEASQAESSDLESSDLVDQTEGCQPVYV
In words: Selectivity interaction (Ambit KINOMEscan and KiNATiv profiling in Jurkat cells) EUB0000090b LATS2. Type of assay: cell-based. The conditions noted are these: at 1 µM.

Assay [2] deals with T2, Serine/threonine-protein kinase Nek10 (Homo sapiens) (UniProt Q6ZWH5).
T2 sequence (whole entry): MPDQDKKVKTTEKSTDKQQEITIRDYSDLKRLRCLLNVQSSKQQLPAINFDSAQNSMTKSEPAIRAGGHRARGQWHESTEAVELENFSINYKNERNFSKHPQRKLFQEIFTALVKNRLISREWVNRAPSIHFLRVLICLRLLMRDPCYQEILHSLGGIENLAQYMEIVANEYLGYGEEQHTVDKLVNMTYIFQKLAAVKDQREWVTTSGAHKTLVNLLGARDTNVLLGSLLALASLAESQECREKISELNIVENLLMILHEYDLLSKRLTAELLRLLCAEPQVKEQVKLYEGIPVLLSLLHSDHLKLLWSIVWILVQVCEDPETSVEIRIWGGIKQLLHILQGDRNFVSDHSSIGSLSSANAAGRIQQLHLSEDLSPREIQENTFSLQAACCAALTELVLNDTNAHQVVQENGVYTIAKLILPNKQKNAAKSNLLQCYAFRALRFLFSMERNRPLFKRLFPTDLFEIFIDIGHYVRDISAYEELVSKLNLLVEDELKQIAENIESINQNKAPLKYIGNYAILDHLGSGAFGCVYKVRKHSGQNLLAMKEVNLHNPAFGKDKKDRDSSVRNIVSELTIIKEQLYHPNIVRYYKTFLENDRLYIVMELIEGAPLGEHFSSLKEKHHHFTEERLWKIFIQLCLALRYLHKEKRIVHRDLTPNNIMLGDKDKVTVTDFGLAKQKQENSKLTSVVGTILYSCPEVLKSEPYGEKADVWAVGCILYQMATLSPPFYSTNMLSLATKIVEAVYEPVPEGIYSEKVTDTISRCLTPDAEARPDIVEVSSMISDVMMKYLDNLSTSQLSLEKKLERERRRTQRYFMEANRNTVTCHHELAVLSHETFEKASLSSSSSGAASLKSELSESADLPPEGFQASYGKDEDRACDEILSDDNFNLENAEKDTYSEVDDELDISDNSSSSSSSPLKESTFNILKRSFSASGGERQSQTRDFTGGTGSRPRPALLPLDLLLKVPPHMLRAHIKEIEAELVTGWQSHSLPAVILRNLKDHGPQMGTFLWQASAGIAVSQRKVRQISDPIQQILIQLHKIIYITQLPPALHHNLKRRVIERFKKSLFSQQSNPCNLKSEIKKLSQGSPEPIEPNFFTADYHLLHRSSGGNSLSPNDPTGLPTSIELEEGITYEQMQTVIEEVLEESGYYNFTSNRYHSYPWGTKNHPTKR
As to the kind of experiment: Selectivity interaction (KinomeScan (DiscoverX)) EUB0001079a NEK10. The conditions noted are these: at 1 µM.

Experimental findings from ChEMBL document CHEMBL5465560, “Selectivity Literature for EUbOPEN Chemogenomic Library” (2024) are described below.

With `CN(C)C/C=C/C(=O)Nc1ccc(C(=O)N2CCCC(Nc3ncc(Cl)c(-c4c[nH]c5ccccc45)n3)C2)cc1` (configuration not stated), the % of control in assay [1] is 100%. `Nc1cnc(N2CCc3cc(S(=O)(=O)Nc4c(F)cc(Cl)cc4F)cc(N4CCCC4=O)c32)nc1` [TP-020n] showed a % of control in assay [2] of 100%.
